The CheMixHub ionic liquid set
Where “and” joins values, the source holds several entries; their conditions need not be identical. Identical values can stand only once. ± gives the uncertainty stated by the source.

Test: xn = mol fraction of the nth substance listed
Conditions: 101.3 kPa

CCCC[N+]1(C)CCCCC1.F[P-](F)(F)(F)(F)F + CCCC[n+]1cccc(C)c1.F[P-](F)(F)(F)(F)F + CCCC[N+]1(C)CCCC1.F[P-](F)(F)(F)(F)F
viscosity
Conditions	298.15 K	303.15 K	308.15 K	313.15 K	318.15 K	323.15 K	328.15 K	333.15 K
x2 = 0.2, x1 = 0.32	–	–	–	–	596 ± 45 mPa·s	439 ± 28 mPa·s	329 ± 18 mPa·s	250 ± 12 mPa·s
x2 = 0.3, x1 = 0.28	–	–	964 ± 96 mPa·s	684 ± 57 mPa·s	495 ± 35 mPa·s	365 ± 22 mPa·s	274 ± 14 mPa·s	210 ± 9 mPa·s
x2 = 0.4, x1 = 0.06	–	794 ± 33 mPa·s	568 ± 22 mPa·s	413 ± 15 mPa·s	306 ± 10 mPa·s	232 ± 7 mPa·s	178 ± 5 mPa·s	139 ± 4 mPa·s
x2 = 0.4, x1 = 0.12	–	916 ± 39 mPa·s	648 ± 26 mPa·s	467 ± 17 mPa·s	344 ± 12 mPa·s	258 ± 8 mPa·s	197 ± 6 mPa·s	153 ± 4 mPa·s
x2 = 0.4, x1 = 0.18	–	964 ± 42 mPa·s	680 ± 28 mPa·s	488 ± 18 mPa·s	358 ± 12 mPa·s	268 ± 8 mPa·s	204 ± 6 mPa·s	158 ± 4 mPa·s
x2 = 0.4, x1 = 0.24	1666 ± 82 mPa·s and 1686 ± 230 mPa·s	1130 ± 52 mPa·s and 1143 ± 130 mPa·s	783 ± 33 mPa·s and 791 ± 72 mPa·s	556 ± 21 mPa·s and 561 ± 42 mPa·s	404 ± 14 mPa·s and 407 ± 26 mPa·s	300 ± 10 mPa·s and 302 ± 16 mPa·s	227 ± 7 mPa·s and 229 ± 10 mPa·s	175 ± 5 mPa·s and 176 ± 7 mPa·s
x2 = 0.4, x1 = 0.3	1857 ± 94 mPa·s	1248 ± 59 mPa·s	859 ± 37 mPa·s	606 ± 24 mPa·s	437 ± 16 mPa·s	323 ± 11 mPa·s	243 ± 7 mPa·s	186 ± 5 mPa·s
x2 = 0.4, x1 = 0.36	2084 ± 110 mPa·s	1390 ± 68 mPa·s	948 ± 42 mPa·s	664 ± 27 mPa·s	476 ± 18 mPa·s	349 ± 12 mPa·s	261 ± 8 mPa·s	199 ± 6 mPa·s
x2 = 0.4, x1 = 0.42	2332 ± 120 mPa·s	1544 ± 77 mPa·s	1045 ± 48 mPa·s	727 ± 30 mPa·s	518 ± 20 mPa·s	378 ± 13 mPa·s	281 ± 9 mPa·s	214 ± 6 mPa·s
x2 = 0.4, x1 = 0.48	2615 ± 140 mPa·s	1714 ± 87 mPa·s	1152 ± 54 mPa·s	795 ± 34 mPa·s	563 ± 22 mPa·s	408 ± 14 mPa·s	302 ± 10 mPa·s	228 ± 7 mPa·s
x2 = 0.4, x1 = 0.54	2945 ± 170 mPa·s	1917 ± 100 mPa·s	1278 ± 61 mPa·s	875 ± 38 mPa·s	615 ± 24 mPa·s	444 ± 16 mPa·s	327 ± 11 mPa·s	246 ± 8 mPa·s
x2 = 0.5, x1 = 0.2	–	–	648 ± 54 mPa·s	465 ± 32 mPa·s	340 ± 20 mPa·s	253 ± 12 mPa·s	192 ± 8 mPa·s	149 ± 5 mPa·s
x2 = 0.6, x1 = 0.16	–	–	534 ± 40 mPa·s	385 ± 24 mPa·s	284 ± 15 mPa·s	213 ± 9 mPa·s	163 ± 6 mPa·s	–
x2 = 0.7, x1 = 0.12	–	–	–	325 ± 19 mPa·s	241 ± 12 mPa·s	182 ± 7 mPa·s	140 ± 5 mPa·s	–
x2 = 0.8, x1 = 0.08	–	–	–	–	206 ± 9 mPa·s	157 ± 6 mPa·s	121 ± 4 mPa·s	–
x2 = 0.9, x1 = 0.04	–	–	–	–	–	136 ± 5 mPa·s	106 ± 3 mPa·s	–
